Measurements from patent publication US20110160196A1, “FACTOR XA INHIBITORS” (Millennium Pharmaceuticals, Inc., priority 2007, published 2011).
pIC50: −log10 of the molar value.

These molecules were tested against T1, human plasma protein factor Xa (Homo sapiens, UniProt P00742) (assay: Factor Xa IC50 determination (cleavage of paranitroanilide substrate S-2765)). Conditions: factor Xa 1 nM, S-2765 100 μM, Tris buffered saline pH 7.4, read at 405 nm.
T1 construct: The human plasma protein factor Xa was purchased; purchased Haematologic Technologies (Essex Junction, Vt.); host or cells: human plasma
T1 sequence (P00742 235-488 limits assumed): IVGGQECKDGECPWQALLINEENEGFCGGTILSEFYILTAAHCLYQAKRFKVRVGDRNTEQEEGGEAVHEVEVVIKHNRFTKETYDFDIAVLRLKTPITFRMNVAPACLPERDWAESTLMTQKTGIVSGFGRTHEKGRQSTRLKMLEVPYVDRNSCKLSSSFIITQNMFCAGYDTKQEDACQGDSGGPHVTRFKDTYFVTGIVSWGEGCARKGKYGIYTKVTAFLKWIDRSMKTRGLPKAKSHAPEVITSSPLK
T1 sequence (P00742 41-179 partner limits assumed): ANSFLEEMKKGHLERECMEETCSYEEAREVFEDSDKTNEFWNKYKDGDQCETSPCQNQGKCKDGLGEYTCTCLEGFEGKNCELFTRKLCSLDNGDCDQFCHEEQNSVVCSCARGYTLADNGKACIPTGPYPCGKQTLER
Type: biochemical
How it was run: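 Human plasma factor Xa (1 nM) preincubated 5 min at room temperature with inhibitor (0.01 nM–10 μM) in Tris-buffered saline pH 7.4 with 5 mM CaCl2, 0.1% BSA, 5% DMSO. S-2765 added at 100 μM final; pNA release followed at 405 nm for 2 min. IC50 from four-parameter fit of initial velocities.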

Row | SMILES | pIC50
1 | O=C(NCc1cn(-c2ccc(-n3ccccc3=O)cc2OCCCN2CCCC2)nn1)c1ccc(Cl)s1 [Compound 93, 5-Chloro-N-((1-(4-(2-oxopyridin-1(2H)-yl)-2-(3-(pyrrolidin-1-yl)propoxy)phenyl)-1H-1,2,3-triazol-4-yl)methyl)thiophene-2-carboxamide] | ≥ 7.00
2 | NCC[S+]([O-])c1cc(-n2ccccc2=O)ccc1-n1cc(CNC(=O)c2ccc(Cl)s2)nn1 (stereo not shown) [Compound 54, N-((1-(2-(2-Aminoethylsulfoxy)-4-(2-oxopyridin-1(2H)-yl)phenyl)-1H-1,2,3-triazol-4-yl)methyl)-5-chlorothiophene-2-carboxamide] | ≥ 7.00
3 | NC(=O)C1CCN(c2cc(-n3ccccc3=O)ccc2-n2cc(CNC(=O)c3ccc(Cl)s3)nn2)CC1 [Compound 25, 1-(2-(4-((2-Chlorothiophene-5-carboxamido)methyl)-1H-1,2,3-triazol-1-yl)-5-(2-oxopyridin-1(2H)-yl)phenyl)piperidine-4-carboxamide] | ≥ 7.00
4 | CS(=O)(=O)CCCOc1cc(-n2ccccc2=O)ccc1-n1cc(CNC(=O)c2ccc(Cl)s2)nn1 [Compound 83, 5-Chloro-N-((1-(2-(3-(methylsulfonyl)propoxy)-4-(2-oxopyridin-1(2H)-yl)phenyl)-1H-1,2,3-triazol-4-yl)methyl)thiophene-2-carboxamide] | ≥ 7.00
5 | O=C(NCc1cn(-c2ccc(-n3ccccc3=O)cc2OCCN2CCCC2)nn1)c1ccc(Cl)s1 [Compound 88, 5-Chloro-N-((1-(4-(2-oxopyridin-1(2H)-yl)-2-(2-(pyrrolidin-1-yl)ethoxy)phenyl)-1H-1,2,3-triazol-4-yl)methyl)thiophene-2-carboxamide] | ≥ 7.00
6 | O=C(NCc1cn(-c2ccc(-n3ccccc3=O)cc2N2CCC(O)CC2)nn1)c1ccc(Cl)s1 [Compound 21, 5-Chloro-N-((1-(2-(4-hydroxypiperidin-1-yl)-4-(2-oxopyridin-1(2H)-yl)phenyl)-1H-1,2,3-triazol-4-yl)methyl)thiophene-2-carboxamide] | ≥ 7.00
7 | O=C(NCc1nnn(-c2ccc(-n3ccccc3=O)cc2OCCCO)c1I)c1ccc(Cl)s1 [Compound 153, 5-Chloro-N-((1-(2-(3-hydroxypropoxy)-4-(2-oxopyridin-1(2H)-yl)phenyl)-5-iodo-1H-1,2,3-triazol-4-yl)methyl)thiophene-2-carboxamide] | 6.30 to 7.00
8 | CCS(=O)(=O)CCOc1cc(-n2ccccc2=O)ccc1-n1cc(CNC(=O)c2ccc(Cl)s2)nn1 [Compound 82, 5-Chloro-N-((1-(2-(2-(ethylsulfonyl)ethoxy)-4-(2-oxopyridin-1(2H)-yl)phenyl)-1H-1,2,3-triazol-4-yl)methyl)thiophene-2-carboxamide] | ≥ 7.00
9 | O=C(NCc1cn(-c2ccc(-n3ccccc3=O)cc2N2CCOCC2)nn1)c1ccc(Cl)s1 [Compound 5, 5-Chloro-N-((1-(2-morpholino-4-(2-oxopyridin-1(2H)-yl)phenyl)-1H-1,2,3-triazol-4-yl)methyl)thiophene-2-carboxamide] | ≥ 7.00
10 | O=C(NCc1cn(-c2ccc(-n3ccccc3=O)cc2C(=O)N2CCC(O)CC2)nn1)c1ccc(Cl)s1 [Compound 115, 5-Chloro-N-((1-(2-(4-hydroxypiperidine-1-carbonyl)-4-(2-oxopyridin-1(2H)-yl)phenyl)-1H-1,2,3-triazol-4-yl)methyl)thiophene-2-carboxamide] | 6.30 to 7.00
11 | O=C(NCc1cn(-c2ccc(-n3ccccc3=O)cc2OC2CCNCC2)nn1)c1ccc(Cl)s1 [Compound 57, 5-Chloro-N-((1-(4-(2-oxopyridin-1(2H)-yl)-2-(piperidin-4-yloxy)phenyl)-1H-1,2,3-triazol-4-yl)methyl)thiophene-2-carboxamide] | ≥ 7.00

The next lines start with the values.

Row | pIC50 | SMILES
12 | ≥ 7.00 | O=C(NCc1cn(-c2ccc(-n3ccccc3=O)cc2Oc2ccccn2)nn1)c1ccc(Cl)s1 [Compound 151, 5-Chloro-N-((1-(4-(2-oxopyridin-1(2H)-yl)-2-(pyridin-2-yloxy)phenyl)-1H-1,2,3-triazol-4-yl)methyl)thiophene-2-carboxamid]
13 | ≥ 7.00 | O=C(NCc1cn(-c2ccc(-n3ccccc3=O)cc2-c2ccnc(O)c2)nn1)c1ccc(Cl)s1 [Compound 137, 5-Chloro-N-((1-(2-(2-hydroxypyridin-4-yl)-4-(2-oxopyridin-1(2H)-yl)phenyl)-1H-1,2,3-triazol-4-yl)methyl)thiophene-2-carboxamide]
14 | ≥ 7.00 | COc1ccc(-c2cc(-n3ccccc3=O)ccc2-n2cc(CNC(=O)c3ccc(Cl)s3)nn2)cn1 [Compound 143, 5-Chloro-N-((1-(2-(6-methoxypyridin-3-yl)-4-(2-oxopyridin-1(2H)-yl)phenyl)-1H-1,2,3-triazol-4-yl)methyl)thiophene-2-carboxamide]
15 | ≥ 7.00 | Cc1nc(COc2cc(-n3ccccc3=O)ccc2-n2cc(CNC(=O)c3ccc(Cl)s3)nn2)cs1 [Compound 172, 5-Chloro-N-((1-(2-((2-methylthiazol-4-yl)methoxy)-4-(2-oxopyridin-1(2H)-yl)phenyl)-1H-1,2,3-triazol-4-yl)methyl)thiophene-2-carboxamide]
16 | ≥ 7.00 | O=C(NCc1cn(-c2ccc(-n3ccccc3=O)cc2OCCCO)nn1)c1ccc(Cl)s1 [Compound 74, 5-Chloro-N-((1-(2-(3-hydroxypropoxy)-4-(2-oxopyridin-1(2H)-yl)phenyl)-1H-1,2,3-triazol-4-yl)methyl)thiophene-2-carboxamide]
17 | ≥ 7.00 | O=C(NCc1cn(-c2ccc(-n3ccccc3=O)cc2-c2ccnc(Cl)c2)nn1)c1ccc(Cl)s1 [Compound 133, 5-Chloro-N-((1-(2-(2-chloropyridin-4-yl)-4-(2-oxopyridin-1(2H)-yl)phenyl)-1H-1,2,3-triazol-4-yl)methyl)thiophene-2-carboxamide]
18 | ≥ 7.00 | O=C(NCc1cn(-c2ccc(-n3ccccc3=O)cc2OCCc2ccccn2)nn1)c1ccc(Cl)s1 [Compound 168, 5-Chloro-N-((1-(4-(2-oxopyridin-1(2H)-yl)-2-(2-(pyridin-2-yl)ethoxy)phenyl)-1H-1,2,3-triazol-4-yl)methyl)thiophene-2-carboxamide]
19 | ≥ 7.00 | O=C(NCc1cn(-c2ccc(-n3ccccc3=O)cc2OCc2ncon2)nn1)c1ccc(Cl)s1 [Compound 175, N-((1-(2-((1,2,4-Oxadiazol-3-yl)methoxy)-4-(2-oxopyridin-1(2H)-yl)phenyl)-1H-1,2,3-triazol-4-yl)methyl)-5-chlorothiophene-2-carboxamide]
20 | ≥ 7.00 | CNC(=O)c1cc(-n2ccccc2=O)ccc1-n1cc(CNC(=O)c2ccc(Cl)s2)nn1 [Compound 102, 5-Chloro-N-((1-(2-(methylcarbamoyl)-4-(2-oxopyridin-1(2H)-yl)phenyl)-1H-1,2,3-triazol-4-yl)methyl)thiophenc-2-carboxamide]
21 | ≥ 7.00 | Nc1cc(-c2cc(-n3ccccc3=O)ccc2-n2cc(CNC(=O)c3ccc(Cl)s3)nn2)ccn1 [Compound 139, N-((1-(2-(2-Aminopyridin-4-yl)-4-(2-oxopyridin-1(2H)-yl)phenyl)-1H-1,2,3-triazol-4-yl)methyl)-5-chlorothiophene-2-carboxamide]
22 | ≥ 7.00 | CNc1ccc(-c2cc(-n3ccccc3=O)ccc2-n2cc(CNC(=O)c3ccc(Cl)s3)nn2)cn1 [Compound 146, 5-Chloro-N-((1-(2-(6-(methylamino)pyridin-3-yl)-4-(2-oxopyridin-1(2H)-yl)phenyl)-1H-1,2,3-triazol-4-yl)methyl)thiophene-2-carboxamide]
